This is an account of results in patent US20200377459A1, “CHARGED ION CHANNEL BLOCKERS AND METHODS FOR USE” (President and Fellows of Harvard College, priority 2015, published 2020).

“Also recorded” adds a separate entry of the source.

Series [1] relates to CFA-induced thermal hyperalgesia. Put plainly: CFA-induced thermal hyperalgesia (Hargreaves radiant heat, hind paw). Format: in vivo. The settings on record: mice, intraplantar co-injection with CFA, 1%. The method, then:
FIGS. 2A-2D show reversal of CFA-induced thermal hyperalgesia by charged sodium channel blockers. FIGS. 2A and 2C show time course (0, 1, 6, and 24 hours) of changes in thermal nociceptive sensitivity measured as response latency (seconds) to a constant radiant heat source applied to the plantar surface of hind paw in mice co-treated with 20 μL (injected in the left hindpaw) of CFA (50% emulsion) and saline, and when the CFA was co-applied with QX-314 (1%, hollow square), N-ethyl etidocaine (Compound 21, 1%; dark square), or ACS8180-3B (Compound 3, 1%; solid triangle). FIGS. 2B and 2D show the nociceptive heat pain response time before CFA treatment and after treatment with the different compounds 1 hour post CFA injection. The data are means±SEM of 8-16 mice per group. The statistical comparison with pre-CFA (*) and with CFA+Vehicle (+) is indicated by +P<0.05; ++P<0.01 and +++,*** P<0.001. All procedures were approved by the Institutional Animal Care and Use Committees. Mice and rats were housed in standard environmental conditions (12-h light/dark cycle; 23° C.; food and water ad libitum) at facilities accredited by the Association for Assessment and Accreditation of Laboratory Animal Care. 8-week old male BALB/c (stock number: 001026) and C57BL/6J (stock number 000664) mice were purchased from Jackson Laboratory and respectively used in allergic airway inflammation (FIG. 5) and pain hypersensitivity model (FIGS. 2A-2D). 6-week old male Sprague-Dawley (stock number: 400) rats, 150±25 grams, were purchased from Charles River laboratory and used to assess pain hypersensitivity (FIG. 3). The compounds were injected in the plantar surface of each animal's right hind paw in 10 μl (mice) or 50 μl (rats) volume of 1:1 emulsion of Complete Freund's Adjuvant (CFA). […] On the 4th day, their thermal nociceptive threshold was evaluated. […] Impact of treatment was analyzed 1 h prior and 1, 3, 6 and 24 h post-treatment. […] With each reading the apparatus was set with a cut-off time of 32 s.

For series [2], the system named is paw incision-induced thermal hyperalgesia. The series can be described thus: Paw incision-induced thermal hyperalgesia. Format: in vivo. The settings on record: rats, intradermal injection into the surgical wound, 1 and 3 hour post-treatment. Here is the method:
FIGS. 3A-3B are data showing reversal of paw incision-induced thermal hyperalgesia by charged sodium channel blockers. […] The data are means±SEM of 8 rats per group. The statistical comparison with the contralateral paw (*) is indicated by ***P<0.001. All procedures were approved by the Institutional Animal Care and Use Committees. Mice and rats were housed in standard environmental conditions (12-h light/dark cycle; 23° C.; food and water ad libitum) at facilities accredited by the Association for Assessment and Accreditation of Laboratory Animal Care. 8-week old male BALB/c (stock number: 001026) and C57BL/6J (stock number 000664) mice were purchased from Jackson Laboratory and respectively used in allergic airway inflammation (FIG. 5) and pain hypersensitivity model (FIGS. 2A-2D). 6-week old male Sprague-Dawley (stock number: 400) rats, 150±25 grams, were purchased from Charles River laboratory and used to assess pain hypersensitivity (FIG. 3). The compounds were injected in the plantar surface of each animal's right hind paw in 10 μl (mice) or 50 μl (rats) volume of 1:1 emulsion of Complete Freund's Adjuvant (CFA). […] On the 4th day, their thermal nociceptive threshold was evaluated. […] Impact of treatment was analyzed 1 h prior and 1, 3, 6 and 24 h post-treatment. […] With each reading the apparatus was set with a cut-off time of 32 s. […]

For series [3], the system named is thermal nociceptive threshold. The series can be described thus: Thermal nociceptive threshold after acute intraplantar injection in naive animals. The settings on record: for difference in thermal nociceptive threshold between contralateral and injected paw: rats, acute intraplantar injection 50 μl, 0.5%, no injury. Format: in vivo, rats.
The test system of series [4] is ATF3 expression in dorsal root ganglion. Put plainly: ATF3 immunofluorescence in dorsal root ganglion (neurotoxicity). Format: in vivo. The settings on record: mice, hindpaw injection CFA+NEE 1%, 20 μl, 8 weeks earlier. Here is the method: Representative picture of ATF3 (dark shading, FIGS. 4A-4C) expression in mice dorsal root ganglion slice exposed 8 weeks earlier to an acute hindpaw injection of CFA+N-ethyl-etidocaine (Compound 21) (1%, 20 μl).
Upon harvesting, the dorsal root ganglia were fixed overnight in 4% para-formaldehyde, washed in PBS and cryoprotected by sequential sucrose immersion (PBS 10-30% sucrose, Overnight). Ganglia were mounted in O.C.T. (Tissue-tek), and serially cut in 20 μm coronal sections with a cryostat. The sections were thaw-mounted on Fisherbrand superfrost microscopy slides and kept at −80° C. On the day of the experiment, sections were thawed at room temperature for 10 min. Sections were washed in PBS for 5 min, blocked for 1 h at room temperature (PBS, 0.1% Triton X-100, 5% BSA) and exposed to the primary antibodies (Overnight, 4° C.), namely rabbit anti-mouse ATF3 (Sigma, # HPA001562). Sections were then washed three times in PBS (5 min), exposed to the secondary antibodies and DAPI (1:2000. Sigma, # D9542) (2 h, dark), washed, coverslipped with Vectashield (Vector Labs) and observed under confocal microscope ([…], LSM-710).
To evaluate if such toxicity occurred with NEE (Compound 21), mice were injected with a combination of CFA+NEE (1%) 8 weeks prior to DRG extraction.

Turning to `CC[N+](CC)(CC)CC(=O)Nc1c(C)cccc1C` [QX-314, reference compound], the “reversal of CFA-induced thermal hyperalgesia” value in series [1] is reported as “reversed”. In addition, in series [2], the “thermal hyperalgesia after surgical incision versus contralateral paw” value was “absent”. For the same molecule, in series [3], the “difference in thermal nociceptive threshold between contralateral and injected paw” value was “no differences”.
As for `CCC[N+](CC)(CC)C(CC)C(=O)Nc1c(C)cccc1C` (stereo not drawn) [Compound 21, N-ethyl etidocaine], the “reversal of CFA-induced thermal hyperalgesia” value in series [1] is on record as “reversed; also recorded: potent blockade”. In addition, in series [2], the “thermal hyperalgesia after surgical incision versus contralateral paw” value is on record as “absent”. Also, the “long lasting analgesia in naïve animals” value in series [3] (naïve animals) is reported as “without long lasting analgesia”. In series [3], the “difference in thermal nociceptive threshold between contralateral and injected paw” value is given as “no differences”. Further, the “neurotoxicity: ATF3 expression in DRG” value in series [4] was “does not induce neurotoxicity”; in series [4] (listed as NEE), “No ATF3 expression was observed”.
